Experimental data: patent US20090130064A1, “DIFFERENTIATION OF STEM CELLS AND STABILIZATION OF PHENOTYPICAL PROPERTIES OF PRIMARY CELLS” (priority 2004, published 2009)

Legend:
Cx26 = Cx26 expression and localization (immunoblotting, immunocytochemistry) in rat hepatocytes; assay type: cell-based; conditions: 1 μM TSA
Method: In all conditions, the hepatocytes were cultivated as a monolayer configuration, and samples were taken at days 1, 4 and 7 (D1, D4, D7) of the cultivation time.
Proteins (25 or 50 μg) were resolved on SDS-PAGE (7.5, 10 or 12%) and blotted afterwards onto nitrocellulose membranes. After blocking with non-fatty milk, membranes were incubated with appropriate concentrations of primary and secondary antibodies (HRP labeled). Proteins were detected using the ECL detection system (Amersham Biosciences). Primary antibodies: Cx26 (Zymed, 1/250), Cx32 (Sigma, 1/500), Cx43 (Zymed, 1/100).
Hepatocytes were fixed with cold ethanol, peremeabilised with Triton X-100 (Sigma) and blocked with non-fatty milk. Following incubation with appropriate concentrations of primary and secondary antibodies (FITC or TRITC labeled), samples were mounted with DAPI-containing Vectashield (Vector Laboratories). Detection was performed by fluorescence microscopy (Leica DMR/XA).

[1] = Biotransformation by human liver microsomes; assay type: in vitro ADME; conditions: 140 μM TSA, 150 min
Method: Human liver specimens (n=3) were acquired from organ donors at the Academic Hospital of the VUB in accordance with the regulations of the local Medical Ethical Committee and immediately frozen in liquid nitrogen. While human liver microsomes were prepared from frozen liver tissue, rat livers (n=3) were freshly isolated for immediate microsome preparation. Microsomal 7-ethoxyresorufin-O-deethylase (EROD) [31]was used as a marker enzyme to evaluate the microsomal biotransformation activity before and after storage. Incubations were carried out in a 100 mM sodium potassium phosphate buffer pH 7.4 in the presence of a NADPH-generating system (0.5 mM NADP^+, 10 mM glucose 6-phosphate, 2 U/ml glucose 6-phosphate dehydrogenase and 0.6 mM MgCl2). Microsomes (0.0-2.0 mg microsomal protein/ml) were incubated with 140 μM substrate at 37° C. for 150 min. Boiled microsomes ([…]) served as a control. Biotransformation reactions were initiated by addition of substrate and, at selected time intervals, terminated by dilution with ice-cold acetonitrile (1:2.5).
After centrifugation (2000 g, 45 min, 4° C.) of the diluted microsomal samples, the clear supernatant was injected onto a HPLC column. Samples from incubations with hepatocytes were thawed on ice and centrifugated (120 g, 2 min). […]

histone H4 = test: Histone H4 acetylation (in vitro HDAC inhibiting activity) in primary rat hepatocytes, Western blot; assay type: cell-based; conditions: 48 hours
Source text: (§1) Male outbred Sprague-Dawley rats (200-300 g, Iffa Credo, Brussels, Belgium) were kept under controlled environmental conditions (12-hr light-dark cycle) and fed a standard diet (Animafabo A04, water ad libitum). Hepatocytes were isolated by a two-step collagenase perfusion as described (De Smet et al. In ‘Methods in Molecular Biology, Vol. 107: Cytochrome P450 Protocols’, Philips I R and Shephard E A, eds., pp 295-301, Humana Press, Totowa, 1998). Cell liability was >90% as determined by trypan blue exclusion. Cells (0.4×10^5 cells/cm^2) were plated in MEM/M199 (3:1), containing BSA (1 mg/ml), bovine insulin (10 μg/ml), L-glutamine (2 mM), FBS (10% v/v) and antibiotics (7.3 IU/ml benzyl penicillin, 50 μg/ml streptomycin sulphate, 50 μg/ml kanamycin monosulphstep and 10 μg/ml sodium ampicillin). Four hours after plating, serum-containing medium was removed and fresh serum-free medium was added to the cultures. Culture medium was refreshed daily. EGF (50 ng/ml) was added 4 hours after plating. A 100 mM stock solution of 4-Me2N-BAVAH was prepared in ethanol.
Hepatocytes were treated for 48 hours with 4-Me2N-BAVAH (10, 25 or 50 μM) Histones were acid-extracted as described previously (Coussens et al. J Biol Chem 254:1716-1723, 1979). Extracted histones (20 μg per lane) were electrophoresed on a 15% SDS-PAGE as described (Waterborg J et al. Anal Biochem 162: 430-434, 1987) and blotted. Equal sample loading was confirmed with Ponceau S. Membranes were incubated at room temperature with primary antibody for 1 hour under gentle shaking and visualized by ECL. Band intensities were quantified by laser densitometry.

primary rat hepatocytes = test: DNA synthesis ([methyl-3H]-thymidine) in EGF-stimulated primary rat hepatocytes; assay type: cell-based
Source text: as §1
Hepatocytes were cultured in triplicate in 35 mm tissue culture dishes (Beckton Dickinson, UK). Cells were incubated with [methyl-^3H]-thymidine (25 Ci/mmol (2 μCi/ml)) for 24 hours prior to harvesting. Its incorporation was measured by liquid scintillation counting (Wallac 1410; counting efficiency: 67.5%) after trichloroacetic acid precipitation of the DNA. Results are expressed as counts per minute (cpm) per μg of total cellular proteins. Protein concentration of the samples was determined according to the Bradford procedure (Bradford. Anal Biochem 72: 248-254, 1976), using BSA as a standard.

Row | SMILES | expression of Cx26 (Cx26) | localization of Cx26 (Cx26) | biotransformation in microsome suspensions [1] | histone H4 acetylation, fold induction (histone H4; 10 μM) | histone H4 acetylation, fold induction (histone H4; 25 μM) | histone H4 hyperacetylation, fold induction (histone H4; 50 μM) | inhibitory effect on DNA replication (primary rat hepatocytes; 50 μM added at 24 hours or 48 hours) | EGF-induced DNA synthesis (primary rat hepatocytes; 50 μM from time of plating) | DNA synthesis (primary rat hepatocytes; 50 μM maintained until 48 hours) | reduction in 3H-thymidine incorporation compared to untreated control cultures (primary rat hepatocytes; 50 μM, withdrawal at 24 hours of culture, measured at 72 hours)
1 | CC(C=CC(=O)NO)=CC(C)C(=O)c1ccc(N(C)C)cc1 (stereo not shown) [TSA] | decreases the expression | perinuclear localization | slow and incomplete biotransformation |  |  |  |  |  |  | 
2 | CN(C)c1ccc(C(=O)NCCCCC(=O)NO)cc1 [4-Me2N-BAVAH, 5-(4-dimethylaminobenzoyl)-aminovaleric acid hydroxamide] |  |  |  | 2.35±0.05 fold induction | 3.56±0.23 fold induction | 6.91±0.63 fold induction | less or no inhibitory effect | totally suppressed | no DNA synthesis occurred | 50.9±1.6%
